The source of these data is article PMC2685281 (Journal of organometallic chemistry, 2009).

Where two headings read alike, the source gives them in different places.

Assay [1] concerns the target T1, lipoic acid groups of the pyruvate dehydrogenase complex (Sus scrofa, UniProt A0A4X1TBD2).
T1 sequence (A0A4X1TBD2 1-647): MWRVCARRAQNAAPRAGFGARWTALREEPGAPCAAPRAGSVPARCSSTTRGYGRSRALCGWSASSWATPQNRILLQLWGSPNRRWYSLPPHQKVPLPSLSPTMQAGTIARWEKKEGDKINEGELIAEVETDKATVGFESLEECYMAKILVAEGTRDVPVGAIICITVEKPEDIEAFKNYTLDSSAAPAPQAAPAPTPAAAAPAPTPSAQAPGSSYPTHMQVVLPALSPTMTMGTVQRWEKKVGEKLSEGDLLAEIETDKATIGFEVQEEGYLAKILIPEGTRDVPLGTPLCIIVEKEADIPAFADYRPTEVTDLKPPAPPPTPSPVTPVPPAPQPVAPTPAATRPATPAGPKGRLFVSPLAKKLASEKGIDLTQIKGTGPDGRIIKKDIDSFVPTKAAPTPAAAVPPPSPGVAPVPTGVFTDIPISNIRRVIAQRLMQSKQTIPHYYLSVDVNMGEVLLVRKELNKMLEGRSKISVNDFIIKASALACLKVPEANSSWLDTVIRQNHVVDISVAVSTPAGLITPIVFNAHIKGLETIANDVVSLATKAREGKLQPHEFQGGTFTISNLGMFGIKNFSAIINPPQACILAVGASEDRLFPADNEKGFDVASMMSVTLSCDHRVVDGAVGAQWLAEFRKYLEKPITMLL
It counts as binding, porcine.

In assay [2] the target is T2, lipoic acid groups of the α-ketoglutarate dehydrogenase complex (Sus scrofa, UniProt Q9N0F1).
T2 sequence (Q9N0F1 69-455): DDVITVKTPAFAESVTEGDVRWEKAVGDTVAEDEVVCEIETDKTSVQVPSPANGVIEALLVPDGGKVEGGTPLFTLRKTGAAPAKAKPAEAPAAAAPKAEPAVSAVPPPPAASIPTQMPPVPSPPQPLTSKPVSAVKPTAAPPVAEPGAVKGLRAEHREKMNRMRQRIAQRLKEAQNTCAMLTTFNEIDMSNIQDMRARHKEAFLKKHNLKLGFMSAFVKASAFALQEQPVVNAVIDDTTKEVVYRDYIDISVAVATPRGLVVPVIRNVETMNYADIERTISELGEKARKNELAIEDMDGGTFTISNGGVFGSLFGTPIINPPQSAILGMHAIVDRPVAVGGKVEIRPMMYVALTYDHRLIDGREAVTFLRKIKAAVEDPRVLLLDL
Type of assay: binding, porcine.

Assay [3] addresses pyruvate dehydrogenase (PDH) complex. Type of assay: biochemical, porcine.
The target in assay [4] is α-ketoglutarate dehydrogenase (KGDH) complex (Sus scrofa, UniProt Q9N0F1). It counts as biochemical, porcine.
The subject of assay [5] is PDH complex. To be noted: read-out: IC50, PDH inhibition; cited from earlier work.
The target in assay [6] is reduced thiol groups. Conditions: read-out: dissociation constants (Kd) for reduced thiol groups; cited from earlier work.

As to Dimethylarsonous iodide [DMA ^3+], the “Loss of recognition of lipoic acid groups by anti-lipoic acid antibody, PDH” value in assay [1] was “strong interference”. Besides, the “Loss of recognition of lipoic acid groups by anti-lipoic acid antibody, KGDH” value in assay [2] is “strong interference”.

What is called IC50 is the concentration that inhibits the measured activity by half. A word on the Kd: it is the concentration at which binding is half-saturated. For the substance Sodium arsenite [As ^3+], the “50% enzyme inhibition (IC50), PDH, half hour incubation” value in assay [3] amounted to 704 ppb. The “50% enzyme inhibition (IC50), PDH, one hour incubation” value in assay [3] is reported as 267 ppb. For the same substance, the IC50 in assay [3] (read-out: 50% enzyme inhibition (IC50), PDH, half hour incubation) is 9.39 µM; in assay [3] (read-out: 50% enzyme inhibition (IC50), PDH, one hour incubation), 3.56 µM; in assay [4] (read-out: 50% enzyme inhibition (IC50), KGDH, half hour incubation), 9.78 µM; in assay [4] (read-out: 50% enzyme inhibition (IC50), KGDH, one hour incubation), 6.51 µM; in assay [5], 116 µM. Besides, in assay [4], the “50% enzyme inhibition (IC50), KGDH, half hour incubation” value was found to be 733 ppb. For the same substance, in assay [4], the “50% enzyme inhibition (IC50), KGDH, one hour incubation” value came to 488 ppb. The Kd in assay [6] was 5 to 124 µM.
